# Counter-ions that a name gives are not always drawn.
# Test system: activated T cells (CD4+ T cells from mouse spleen)
# Experiment: 3H-thymidine uptake in activated T cells
# Type: cell-based, mouse (C57BL/6J)
# Details: T-cell; mouse spleen CD4+ T cells activated with Dynabeads Mouse T-Activator CD3/CD28; read-out: IC50 (3H-thymidine uptake, proliferation of activated T cells)
# Description: Effect of Test Substance on ^3H-Thymidine Uptake in Activated T Cells
# The effect of test substance on ^3H-thymidine uptake by activation was evaluated using T cells from mouse spleen. The spleen was removed from euthanized C57BL/6J mice, and finely sliced, then triturated on a cell strainer (40 μm mesh), and cells were collected by centrifugation. The collected splenocytes were treated with Cold lyser containing 0.17 M NH4Cl for 5 minutes to hemolytically remove red blood cells and then washed. The resulting cells were used as the splenocytes. From the splenocytes, CD4+ T cells were isolated using an EasySep Mouse CD4+ T cell isolation kit (STEMCELL Technologies Inc.). The CD4+ T cells were seeded into 96-well round-bottom plates. To the plates, test substance or Vehicle was added, and Dynabeads Mouse T-Activator CD3/CD28 (Thermo Fisher Scientific Inc.) was added, then the cells were cultured at 37° C. under 5% CO2. After 24 hours of culture, ^3H-Thymidine (PerkinElmer Inc.) diluted with medium was added to each well, then the cells were further cultured at 37° C. under 5% CO2 overnight. To measure ^3H-Thymidine uptake into the nuclei of the cells, the cells were collected into filter plates UniFilter-96 GF/B (PerkinElmer Inc.) using a FilterMate Universal Harvester (PerkinElmer Inc.). The filter plates were placed in a dryer and left still for 2 hours or more. Then, scintillation cocktail MicroScint-O (PerkinElmer Inc.) was added to the plates, and radioactivity was measured with TopCount NXT (PerkinElmer Inc.). With the radioactivity of the test substance-free group set as 100% and the radioactivity of the non-activation group as 0%, the relative value (proliferation rate, % of vehicle) of the radioactivity of each well to which test substance was added was calculated. The value of % of vehicle was incorporated into analysis software Prism (Version 5.0, GraphPad Software), the “Nonlinear Regression Log (inhibitor) vs Reaction Variable Inclination” was selected, and then sigmoid fitting with restrictions of Bottom=0 and Top=100 was performed to calculate 50% inhibitory concentration (IC50).
row,Compound,IC50 [nM]
1,N[C@@H](Cc1cccc(S(=O)(=O)N2CC(Oc3ccccc3)(c3ccccn3)C2)c1)C(=O)O [Example 33],7.8
2,"N[C@@H](Cc1cccc(S(=O)(=O)N2CC(Oc3ccc(F)c(F)c3)(c3ccccc3)C2)c1)C(=O)O [Example 10, (S)-2-Amino-3-(3-((3-(3,4-difluorophenoxy)-3-phenylazetidin-1-yl)sulfonyl)phenyl)propanoic acid]",21
3,"NC(=O)c1ccc(OC2(c3ccccc3)CN(S(=O)(=O)c3cccc(C[C@H](N)C(=O)O)c3)C2)cc1 [Example 17, (S)-2-Amino-3-(3-((3-(4-carbamoylphenoxy)-3-phenylazetidin-1-yl)sulfonyl)phenyl)propanoic acid hydrochloride]",1.2
4,"N#Cc1ccccc1OC1(c2ccccc2)CN(S(=O)(=O)c2cccc(C[C@H](N)C(=O)O)c2)C1 [Example 18, (S)-2-Amino-3-(3-((3-(2-cyanophenoxy)-3-phenylazetidin-1-yl)sulfonyl)phenyl)propanoic acid]",2.9
5,N[C@@H](Cc1cccc(S(=O)(=O)N2CC(Oc3ccccc3C(F)(F)F)(c3ccccc3)C2)c1)C(=O)O [Example 2],15
6,"N[C@@H](Cc1cccc(S(=O)(=O)N2CC(Oc3ccc(F)cc3)(c3ccc(F)cc3)C2)c1)C(=O)O [Example 6, (S)-2-Amino-3-(3-((3-(4-fluorophenoxy)-3-(4-fluorophenyl)azetidin-1-yl)sulfonyl)phenyl)propanoic acid]",1.2
7,N[C@@H](Cc1cccc(S(=O)(=O)N2CC(Oc3ccc(F)c(Cl)c3)(c3ccccc3)C2)c1)C(=O)O [Example 11],20
8,N[C@@H](Cc1cccc(S(=O)(=O)N2CC(Oc3ccccc3)(c3ccccc3F)C2)c1)C(=O)O [Example 27],2.9
9,"N[C@@H](Cc1cccc(S(=O)(=O)N2CC(Oc3ccccc3Br)(c3ccccc3)C2)c1)C(=O)O [Example 5, (S)-2-Amino-3-(3-((3-(2-bromophenoxy)-3-phenylazetidin-1-yl)sulfonyl)phenyl)propanoic acid]",3.2
10,"N[C@@H](Cc1cccc(S(=O)(=O)N2CC(Oc3ccccc3F)(c3ccc(F)cc3)C2)c1)C(=O)O [Example 4, (S)-2-Amino-3-(3-((3-(2-fluorophenoxy)-3-(4-fluorophenyl)azetidin-1-yl)sulfonyl)phenyl)propanoic acid]",2.6
11,N[C@@H](Cc1cccc(S(=O)(=O)N2CC(OC3CC3)(c3ccccc3)C2)c1)C(=O)O [Example 39],140
12,CC(C)(C)CC1(Oc2ccccc2)CN(S(=O)(=O)c2cccc(C[C@H](N)C(=O)O)c2)C1 [Example 25],92
13,"N[C@@H](Cc1cccc(S(=O)(=O)N2CC(Oc3cccc(Br)c3)(c3ccccc3)C2)c1)C(=O)O [Example 8, (S)-2-Amino-3-(3-((3-(3-bromophenoxy)-3-phenylazetidin-1-yl)sulfonyl)phenyl)propanoic acid]",3
14,NC(=O)c1cccc(OC2(c3ccccc3)CN(S(=O)(=O)c3cccc(C[C@H](N)C(=O)O)c3)C2)c1 [Example 15],2.9
15,N[C@@H](Cc1cccc(S(=O)(=O)N2CC(Oc3ccc(C(F)(F)F)cc3)(c3ccccc3)C2)c1)C(=O)O [Example 12],9.6
16,N[C@@H](Cc1cccc(S(=O)(=O)N2CC(Oc3ccccc3F)(c3ccccn3)C2)c1)C(=O)O [Example 34],19
17,N[C@@H](Cc1cccc(S(=O)(=O)N2CC(Oc3cccnc3)(c3ccccc3)C2)c1)C(=O)O [Example 22],8.7
18,N[C@@H](Cc1cccc(S(=O)(=O)N2CC(Oc3ccccc3)(c3ccccc3)C2)c1)C(=O)O [Example 24],0.49
19,N[C@@H](Cc1cccc(S(=O)(=O)N2CC(Cc3ccccc3)(c3ccccc3)C2)c1)C(=O)O [Example 16],68
20,N[C@@H](Cc1cccc(S(=O)(=O)N2CC(c3ccccc3-c3ccccc3)C2)c1)C(=O)O [Example 36],78
21,Cc1ccccc1-c1ccccc1C1CN(S(=O)(=O)c2cccc(C[C@H](N)C(=O)O)c2)C1 [Example 37],85

row,Compound,IC50 [nM]
1,N#Cc1ccc(OC2(c3ccccc3)CN(S(=O)(=O)c3cccc(C[C@H](N)C(=O)O)c3)C2)cc1 [Example 40],2.2
2,N[C@@H](Cc1cccc(S(=O)(=O)N2CC(Oc3ccccc3)(C(F)(F)F)C2)c1)C(=O)O [Example 29],180
3,N[C@@H](Cc1cccc(S(=O)(=O)N2CC(Oc3ccccc3)(c3cccc(F)c3)C2)c1)C(=O)O [Example 26],2.5
4,N[C@@H](Cc1cccc(S(=O)(=O)N2CC(Oc3ccc(Br)cc3)(c3ccccc3)C2)c1)C(=O)O [Example 19],3
5,N[C@@H](Cc1cccc(S(=O)(=O)N2CC(Oc3ccccc3)(C3CC3)C2)c1)C(=O)O [Example 31],210
6,N[C@@H](Cc1cccc(S(=O)(=O)N2CC(Oc3ccc(F)cc3)(c3ccccn3)C2)c1)C(=O)O [Example 43],8.6
7,N[C@@H](Cc1cccc(S(=O)(=O)N2CC(Oc3cccc(C(F)(F)F)c3)(c3ccccc3)C2)c1)C(=O)O [Example 21],2.5
8,"N[C@@H](Cc1cccc(S(=O)(=O)N2CC(Oc3cccc(Cl)c3)(c3ccccc3)C2)c1)C(=O)O [Example 3, (S)-2-Amino-3-(3-((3-(3-chlorophenoxy)-3-phenylazetidin-1-yl)sulfonyl)phenyl)propanoic acid]",3.1
9,N#Cc1cccc(OC2(c3ccccc3)CN(S(=O)(=O)c3cccc(C[C@H](N)C(=O)O)c3)C2)c1 [Example 20],3
10,N[C@@H](Cc1cccc(S(=O)(=O)N2CC(Oc3cccc(F)c3)(c3ccccn3)C2)c1)C(=O)O [Example 35],17
11,N[C@@H](Cc1cccc(S(=O)(=O)N2CC(Oc3ccncc3)(c3ccccc3)C2)c1)C(=O)O [Example 23],16
12,N[C@@H](Cc1cccc(S(=O)(=O)N2CC(Oc3cccc(F)c3)(c3ccccc3F)C2)c1)C(=O)O [Example 13],3
13,N[C@@H](Cc1cccc(S(=O)(=O)N2CC(Oc3ccc(F)cc3)(c3ccccc3F)C2)c1)C(=O)O [Example 14],30
14,"N[C@@H](Cc1cccc(S(=O)(=O)N2CC(Oc3ccccc3Cl)(c3ccccc3)C2)c1)C(=O)O [Example 7, (S)-2-Amino-3-(3-((3-(2-chlorophenoxy)-3-phenylazetidin-1-yl)sulfonyl)phenyl)propanoic acid]",4.1
15,N[C@@H](Cc1cccc(S(=O)(=O)N2CC(Oc3ccccc3-c3ccccc3Cl)C2)c1)C(=O)O [Example 38],34
16,"N[C@@H](Cc1cccc(S(=O)(=O)N2CC(Oc3cccc(F)c3)(c3ccc(F)cc3)C2)c1)C(=O)O [Example 1, (S)-2-Amino-3-(3-((3-(3-fluorophenoxy)-3-(4-fluorophenyl)azetidin-1-yl)sulfonyl)phenyl)propanoic acid]",1.2
17,N[C@@H](Cc1cccc(S(=O)(=O)N2CC(Oc3ccccc3)(c3nccs3)C2)c1)C(=O)O [Example 32],11
18,Cc1ccc(OC2(c3ccccc3)CN(S(=O)(=O)c3cccc(C[C@H](N)C(=O)O)c3)C2)cc1 [Example 9],4.3
19,CC1(Oc2ccccc2)CN(S(=O)(=O)c2cccc(C[C@H](N)C(=O)O)c2)C1 [Example 30],1100
20,[2H]c1c([2H])c([2H])c(C2(Oc3cccc(F)c3)CN(S(=O)(=O)c3cccc(C[C@H](N)C(=O)O)c3)C2)c([2H])c1[2H] [Example 28],2.3

# Source: patent US20210238136A1, “AZETIDINE DERIVATIVE, AND PRODRUG THEREOF” (DAIICHI SANKYO COMPANY, LIMITED, priority 2018, published 2021)
